Reference: ChEMBL document CHEMBL1130948, “Synthesis of sialyl Lewis X mimetics using the Ugi four-component reaction” (Bioorg Med Chem Lett, 1998)
“And” between values parts separate entries of the source, which are not always exact repeats. Equal values may be shown once. The source made the active and inactive calls. No cut-off for these calls is given here.

How the values were obtained:
E-selectin [1] = target: T1, E-selectin (Homo sapiens, UniProt P16581); assay: Compound was tested in a cell-free SLe-polyacrylamide glycoconjugate binding assay (assay A) in Selectin E
T1 sequence (P16581 whole entry): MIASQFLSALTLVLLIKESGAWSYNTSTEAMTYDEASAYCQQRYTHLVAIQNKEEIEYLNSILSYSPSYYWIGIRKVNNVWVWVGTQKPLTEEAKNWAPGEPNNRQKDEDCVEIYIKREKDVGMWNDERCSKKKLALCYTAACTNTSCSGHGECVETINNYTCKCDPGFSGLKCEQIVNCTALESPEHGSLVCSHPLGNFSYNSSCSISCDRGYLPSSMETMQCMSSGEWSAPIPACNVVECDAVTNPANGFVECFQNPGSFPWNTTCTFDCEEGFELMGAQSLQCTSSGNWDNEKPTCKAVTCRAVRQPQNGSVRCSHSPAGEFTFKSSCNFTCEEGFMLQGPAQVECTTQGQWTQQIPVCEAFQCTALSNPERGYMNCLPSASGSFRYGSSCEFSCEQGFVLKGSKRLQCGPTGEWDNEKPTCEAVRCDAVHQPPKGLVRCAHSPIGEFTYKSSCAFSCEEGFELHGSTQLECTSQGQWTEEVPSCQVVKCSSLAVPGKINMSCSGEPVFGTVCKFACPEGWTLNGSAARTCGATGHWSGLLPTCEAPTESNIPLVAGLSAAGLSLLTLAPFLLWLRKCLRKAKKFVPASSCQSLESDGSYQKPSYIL

[2] = target: T2, E-selectin (Homo sapiens) (UniProt P16581); assay: Inhibitory activity against E-selectin was tested in a cell-free SLe-polymer/Selectin E assay, at 3 mM concentration; […].
T2 sequence (whole entry): T1 sequence (P16581 whole entry)

[3] = target: T2, E-selectin (Homo sapiens); assay: Inhibitory activity against E-selectin was tested in a cell-free SLe-polymer/Selectin E assay, at 3 mM concentration.
P-selectin [4] = target: T3, P-selectin (Homo sapiens, UniProt P16109); assay: Compound was tested in a cell-free SLe-polyacrylamide glycoconjugate binding assay (assay B) in P-selectin
T3 sequence (P16109 whole entry): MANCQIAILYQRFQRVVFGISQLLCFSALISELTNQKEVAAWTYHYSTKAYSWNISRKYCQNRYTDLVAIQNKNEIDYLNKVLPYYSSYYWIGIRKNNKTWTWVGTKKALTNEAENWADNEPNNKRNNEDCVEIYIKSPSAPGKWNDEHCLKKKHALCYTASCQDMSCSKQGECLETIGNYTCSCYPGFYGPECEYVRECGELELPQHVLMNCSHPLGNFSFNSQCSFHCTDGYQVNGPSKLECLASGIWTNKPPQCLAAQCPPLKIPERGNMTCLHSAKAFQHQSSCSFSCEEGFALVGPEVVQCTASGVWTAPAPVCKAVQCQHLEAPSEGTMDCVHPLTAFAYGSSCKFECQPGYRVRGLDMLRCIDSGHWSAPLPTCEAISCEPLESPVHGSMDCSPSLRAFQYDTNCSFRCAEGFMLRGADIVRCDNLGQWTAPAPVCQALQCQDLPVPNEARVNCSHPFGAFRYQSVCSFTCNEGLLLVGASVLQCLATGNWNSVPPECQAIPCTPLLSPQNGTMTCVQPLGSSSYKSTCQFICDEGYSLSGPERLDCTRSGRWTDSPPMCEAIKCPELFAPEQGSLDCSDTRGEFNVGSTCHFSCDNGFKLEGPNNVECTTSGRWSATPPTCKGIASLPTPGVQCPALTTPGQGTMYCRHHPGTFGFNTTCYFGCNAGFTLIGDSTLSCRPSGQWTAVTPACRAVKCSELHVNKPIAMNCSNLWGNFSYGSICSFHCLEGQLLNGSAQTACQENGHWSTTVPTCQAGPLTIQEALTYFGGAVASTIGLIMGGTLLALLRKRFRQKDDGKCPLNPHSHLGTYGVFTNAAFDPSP

E-selectin [5] = target: T1, E-selectin; assay: Compound was tested in a cell-free SLe-polyacrylamide glycoconjugate binding assay (assay B) in Selectin E
P-selectin [6] = target: T3, P-selectin; assay: Tested in a cell-free SLe-polyacrylamide glycoconjugate binding assay (assay A) in P-selectin
P-selectin [7] = target: T3, P-selectin; assay: Compound was tested in a cell-free SLe-polyacrylamide glycoconjugate binding assay (assay A) in P-selectin; value ranges from 1-3
[8] = target: T2, E-selectin (Homo sapiens); assay: Compound was tested in a cell-free SLe-polymer/Selectin E assay, at 3 mM concentration.
E-selectin [9] = target: T1, E-selectin; assay: Compound was tested in a cell-free SLe-polyacrylamide glycoconjugate binding assay (assay A) in Selectin E; inactive
P-selectin [10] = target: T3, P-selectin; assay: Tested in a cell-free SLe-polyacrylamide glycoconjugate binding assay (assay A) in P-selectin; inactive
P-selectin [11] = target: T3, P-selectin; assay: Compound was tested in a cell-free SLe-polyacrylamide glycoconjugate binding assay (assay B) in P-selectin; value ranges from 1.3-2
[12] = target: T2, E-selectin (Homo sapiens); assay: (§1) Compound was tested in a cell-free SLe-polyacrylamide glycoconjugate binding assay (assay A) in Selectin E at 3 mM
[13] = target: T4, P-selectin (Homo sapiens) (UniProt P16109); settings: 1 mM
T4 sequence (whole entry): T3 sequence (P16109 whole entry)
Description: Compound was tested in a cell-free SLe-polyacrylamide glycoconjugate binding assay (assay A) in P-selectin at 1 mM

[14] = target: T2, E-selectin (Homo sapiens); assay: as §1; remark: listed apart in the source
[15] = target: T2, E-selectin (Homo sapiens); assay: Inhibitory activity against E-selectin was tested in a cell-free SLe-polymer/Selectin E assay, at 3 mM concentration; […]

Row | IC50 (E-selectin [1]) | IC50 (P-selectin [4]) | IC50 (E-selectin [5]) | SMILES | further results
1 | 840 µM |  |  | COC(=O)CNC(=O)C(CC1OC(C)C(O)C(O)C1O)N(Cc1ccccc1)C(=O)C(NC(=O)CCC(=O)O)C(O)CO (stereo not drawn) | 
2 |  |  |  | O=C(O)CNC(=O)C(CC1OC(CO)C(O)C(O)C1O)N(CC(=O)O)C(=O)CC1c2ccccc2-c2ccccc21 (stereo not drawn) | inhibition [2]: inactive
3 |  |  |  | O=C(O)CNC(=O)C(CC1OC(CO)C(O)C(O)C1O)N(CC(=O)O)C(=O)Cc1cccc2ccccc12 (stereo not drawn) | inhibition [3]: 42%
4 | 500 µM and 300 µM | 5 µM and 1 µM | > 10000 µM | CCOCCOCCOCCOCCCCOCC1OC(CC(=O)N(C(C)C(=O)NCC(=O)OC)C(CCC(=O)O)C(=O)O)C(O)C(O)C1O (stereo not drawn) | IC50 (P-selectin [6]): > 3000 µM
5 | 420 µM and 600 µM | 127 µM and 32 µM | 3420 µM and 3620 µM | COC(=O)CNC(=O)C(C)N(C(=O)CC1OC(COCCCc2ccc(Oc3ccc(Oc4ccccc4)cc3)cc2)C(O)C(O)C1O)C(CCC(=O)O)C(=O)O (stereo not drawn) | IC50 (P-selectin [7]): 1000 µM
6 | 350 µM | 4 µM | > 10000 µM | O=C(O)CCC(NC(=O)CC1OC(COCCCc2ccc(Oc3ccc(Oc4ccccc4)cc3)cc2)C(O)C(O)C1O)C(=O)O (stereo not drawn) | IC50 (P-selectin [6]): 34 µM
7 |  |  |  | CCCCCC(=O)N(CC(=O)O)C(CC1OC(CO)C(O)C(O)C1O)C(=O)NCC(=O)O (stereo not drawn) | inhibition [8]: 52%
8 |  |  |  | O=C(O)CNC(=O)C(CC1OC(CO)C(O)C(O)C1O)N(CC(=O)O)C(=O)c1ccc(-c2ccccc2)cc1 (stereo not drawn) | inhibition [2]: inactive
9 |  | 20 µM | > 10000 µM | CCOCCOCCOCCOCCCCOCC1OC(CC(=O)NC(CCC(=O)O)C(=O)O)C(O)C(O)C1O (stereo not drawn) | IC50 (E-selectin [9]): Not Active; IC50 (P-selectin [6]): > 3000 µM
10 | > 3000 µM | 311 µM and 85 µM | > 2500 µM | CC(C(=O)NCCc1ccccc1)N(C(=O)CC1OC(COc2ccccc2)C(O)C(O)C1O)C(CCC(=O)O)C(=O)O (stereo not drawn) | 
11 | 3000 µM | 28 µM | > 4000 µM | COC(=O)CNC(=O)C(CCC(=O)O)N(C(=O)CC1OC(CO)C(O)C(O)C1O)C(CCC(=O)O)C(=O)O (stereo not drawn) | IC50 (P-selectin [10]): Not Active
12 | 480 µM |  | 1090 µM | CC(=O)N[C@H]1[C@H]([C@H](O)[C@H](O)CO)O[C@@](O[C@H]2[C@@H](O)[C@@H](CO)O[C@@H](O[C@@H]([C@H](O[C@@H]3O[C@@H](C)[C@@H](O)[C@@H](O)[C@@H]3O)[C@H](C=O)NC(C)=O)[C@H](O)CO)[C@@H]2O)(C(=O)O)C[C@@H]1O [SIALYL LEWIS X] | IC50 (P-selectin [11]): 1300 µM; IC50 (P-selectin [6]): > 3000 µM
13 | 3400 µM and 2800 µM | 41 µM and 43 µM | > 2500 µM | COC(=O)CNC(=O)C(C)N(C(=O)CC1OC(COc2ccccc2)C(O)C(O)C1O)C(CCC(=O)O)C(=O)O (stereo not drawn) | 
14 | 3000 µM | 15 µM | > 4000 µM | O=C(O)CCC(C(=O)O)N(C(=O)CC1OC(CO)C(O)C(O)C1O)C(CCC(=O)O)C(=O)NCC(=O)O (stereo not drawn) | IC50 (P-selectin [10]): Not Active
15 |  |  |  | CC(=O)N(CC(=O)O)C(CC1OC(CO)C(O)C(O)C1O)C(=O)NCC(=O)O (stereo not drawn) | inhibition [8]: 28%
16 |  | 18 µM and 25 µM | > 4000 µM | O=C(O)CCC(=O)N(C(CCC(=O)O)C(=O)O)C(CC1OC(CO)C(O)C(O)C1O)C(=O)NCC(=O)O (stereo not drawn) | IC50 (P-selectin [10]): Not Active; inhibition [12]: 45%; inhibition [13]: 29%; inhibition [14]: 45%
17 |  |  |  | O=C(O)CNC(=O)C(CC1OC(CO)C(O)C(O)C1O)N(CC(=O)O)C(=O)c1ccccc1 (stereo not drawn) | inhibition [3]: 38%
18 |  |  |  | C/C=C/C=C/C(=O)N(CC(=O)O)C(CC1OC(CO)C(O)C(O)C1O)C(=O)NCC(=O)O (stereo not drawn) | inhibition [15]: inactive
19 |  |  |  | O=C(O)CNC(=O)C(CC1OC(CO)C(O)C(O)C1O)N(CC(=O)O)C(=O)C(F)(F)F (stereo not drawn) | inhibition [8]: 42%
20 | 360 µM and 1000 µM |  | > 10000 µM | COC(=O)CNC(=O)C(C)N(C(=O)CC1OC(CO)C(O)C(O)C1O)C(CCC(=O)O)C(=O)O (stereo not drawn) | 
21 | 530 µM | 28 µM | > 4000 µM | CC1OC(CC(C(=O)NCCc2ccccc2)N(CC(=O)NC(CCC(=O)O)C(=O)O)C(=O)CCc2ccc(Oc3ccc(Oc4ccccc4)cc3)cc2)C(O)C(O)C1O (stereo not drawn) | IC50 (P-selectin [6]): 283 µM
22 |  |  |  | O=C(O)CNC(=O)C(CC1OC(CO)C(O)C(O)C1O)N(CC(=O)O)C(=O)c1cccc2c1Cc1ccccc1-2 (stereo not drawn) | inhibition [3]: 48%
23 | 3000 µM and > 3000 µM | 39 µM and 142 µM | > 4000 µM | COC(=O)CCC(=O)N(C(CCC(=O)O)C(=O)O)C(CC1OC(CO)C(O)C(O)C1O)C(=O)NCC(=O)OC (stereo not drawn) | IC50 (P-selectin [10]): Not Active
24 | 950 µM | 76 µM | > 2500 µM | CC1OC(CC(=O)N(CC(=O)NC(CCC(=O)O)C(=O)O)C(CCc2ccc(Oc3ccc(Oc4ccccc4)cc3)cc2)C(=O)NCCc2ccccc2)C(O)C(O)C1O (stereo not drawn) | 
25 |  |  |  | CCCCCCCCCCCCCC(=O)N(CC(=O)O)C(CC1OC(CO)C(O)C(O)C1O)C(=O)NCC(=O)O (stereo not drawn) | inhibition [3]: 32%
26 |  |  |  | O=C(O)CNC(=O)C(CC1OC(CO)C(O)C(O)C1O)N(CC(=O)O)C(=O)Cc1ccc2ccccc2c1 (stereo not drawn) | inhibition [3]: 51%
27 | > 3000 µM | 87 µM and 136 µM | > 2500 µM | CC(C(=O)NC(C)(C)C)N(C(=O)CC1OC(COc2ccccc2)C(O)C(O)C1O)C(CCC(=O)O)C(=O)O (stereo not drawn) | 
